# Test results reported in patent publication US7964647B2 (Mutual Pharmaceutical Company, Inc., priority 2007, dated 2011).
# Tests used:
# clinical = details: human, in vivo, 0.6 mg; for AUC: AUC0-τ, 0.6 mg b.i.d. x 10 days, after last dose (Day 25), healthy adults, N = 13
# [1] = Pharmacokinetic study of standard-dose acute gout regimen 4.8 mg over 6 hours (Example 6); details: for Cmax / Tmax / half-life: human, in vivo, 4.8 mg
# Experimental: This study was a single center, randomized, double-blind, double-dummy pharmacokinetic and exploratory ECG safety study.
# Those randomized to moxifloxacin received 1×400 mg tablet.
# [2] = standard-dose regimen 4.8 mg over 6 hours, healthy adults, N = 15
# [3] = standard-dose regimen 4.8 mg over 6 hours, time after the initial dose, healthy adults, N = 15
smiles,measurement,setting,value
"COc1cc2c(c(OC)c1OC)-c1ccc(OC)c(=O)cc1[C@@H](NC(C)=O)CC2 [Colchicine, (−)-N-[(7S,12aS)-1,2,3,10-tetramethoxy-9-oxo-5,6,7,9-tetrahydrobenzo[a]heptalen-7-yl]-acetamide]",Tmax,clinical,1 h
same,AUC,clinical; MEAN,29.1 ng·h/mL
same,AUC,clinical; MEDIAN,28.5 ng·h/mL
same,Cmax,clinical; po,2.71 ng/mL
same,half-life,clinical; po,~5 h
same,Cmax,"[1]; MEAN, standard-dose regimen 4.8 mg over 6 hours, healthy adults, N = 15",6.8 ng/mL
same,Cmax,"[1]; MEDIAN, standard-dose regimen 4.8 mg over 6 hours, healthy adults, N = 15",6.69 ng/mL
same,Tmax,"[1]; MEAN, standard-dose regimen 4.8 mg over 6 hours, time after the initial dose, healthy adults, N = 15",~4.5 h
same,Tmax,"[1]; MEDIAN, standard-dose regimen 4.8 mg over 6 hours, time after the initial dose, healthy adults, N = 15",3.12 h
same,half-life,"[1]; t1/2, MEAN, standard-dose regimen 4.8 mg over 6 hours, healthy adults, N = 15",31.4 h
same,half-life,"[1]; t1/2, MEDIAN, standard-dose regimen 4.8 mg over 6 hours, healthy adults, N = 15",32.8 h
same,"CL/F, MAX",[1]; [2],78287.41 mL/h
same,"CL/F, MEAN",[1]; [2],43168.87 mL/h
same,"CL/F, MEDIAN",[1]; [2],37954.71 mL/h
same,"CL/F, MIN",[1]; [2],31386.01 mL/h
same,"Cmax, MAX",[1]; [2],8.60 ng/mL
same,"Cmax, MEAN",[1]; [2],6.84 ng/mL
same,"Cmax, MIN",[1]; [2],4.95 ng/mL
same,"Kel, MAX",[1]; [2],0.0461 h⁻¹
same,"Kel, MEAN",[1]; [2],0.0242 h⁻¹
same,"Kel, MEDIAN",[1]; [2],0.0212 h⁻¹
same,"Kel, MIN",[1]; [2],0.0147 h⁻¹
same,"Total AUC0-t, MAX",[1]; [2],138.24 ng·h/mL
same,"Total AUC0-t, MEAN",[1]; [2],104.95 ng·h/mL
same,"Total AUC0-t, MEDIAN",[1]; [2],113.12 ng·h/mL
same,"Total AUC0-t, MIN",[1]; [2],53.74 ng·h/mL
same,"Total AUC∞, MAX",[1]; [2],152.93 ng·h/mL
same,"Total AUC∞, MEAN",[1]; [2],118.20 ng·h/mL
same,"Total AUC∞, MEDIAN",[1]; [2],126.47 ng·h/mL
same,"Total AUC∞, MIN",[1]; [2],61.31 ng·h/mL
same,"Varea/F, MAX",[1]; [2],2639.21 L
same,"Varea/F, MEAN",[1]; [2],1876.09 L
same,"Varea/F, MEDIAN",[1]; [2],1902.14 L
same,"Varea/F, MIN",[1]; [2],805.92 L
same,"t1/2, MAX",[1]; [2],47.22 h
same,"t1/2, MIN",[1]; [2],15.03 h
same,"Tmax, MAX",[1]; [3],7.50 h
same,"Tmax, MEAN",[1]; [3],4.47 h
same,Subjects with a secondary peak within 6 hours,"[1]; standard-dose regimen 4.8 mg, 13 of 15 subjects",87%
